Test results as given in US8563545B2, “Compound useful for the treatment of degenerative and inflammatory diseases” (Galapagos NV, priority 2009, dated 2013).
Values joined by “and” are separate entries in the source; they are usually repeats but may differ in a detail not shown here. Equal values may be shown once.

Assays:
[1] = target: JAK2 (Homo sapiens (Human), UniProt O60674); test: JAK2 inhibition assay; format: biochemical
Procedure: After 90 min at 30° C., reactions were stopped by adding of 25 μL/well of 150 mM phosphoric acid. […] Plates were washed 6 times with 300 μL per well of a 75 mM phosphoric acid solution and the bottom of the plates was sealed. 40 μL/well of Microscint-20 was added, the top of the plates was sealed and readout was performed using the Topcount (Perkin Elmer). Kinase activity was calculated by subtracting counts per minute (cpm) obtained in the presence of a positive control inhibitor (10 μM staurosporine) from cpm obtained in the presence of vehicle. The ability of a test compound to inhibit this activity was determined as:
(§1) Percentage inhibition=((cpm determined for sample with test compound present−cpm determined for sample with positive control inhibitor)divided by(cpm determined in the presence of vehicle−cpm determined for sample with positive control inhibitor))*100.
Dose dilution series were prepared for the compounds enabling the testing of dose-response effects in the JAK2 assay and the calculation of the IC50 for each compound.

[2] = target: JAK1 (Homo sapiens (Human), UniProt P23458); test: JAK1 inhibition assay; format: biochemical
Sequence of JAK1 (P23458 850-1154): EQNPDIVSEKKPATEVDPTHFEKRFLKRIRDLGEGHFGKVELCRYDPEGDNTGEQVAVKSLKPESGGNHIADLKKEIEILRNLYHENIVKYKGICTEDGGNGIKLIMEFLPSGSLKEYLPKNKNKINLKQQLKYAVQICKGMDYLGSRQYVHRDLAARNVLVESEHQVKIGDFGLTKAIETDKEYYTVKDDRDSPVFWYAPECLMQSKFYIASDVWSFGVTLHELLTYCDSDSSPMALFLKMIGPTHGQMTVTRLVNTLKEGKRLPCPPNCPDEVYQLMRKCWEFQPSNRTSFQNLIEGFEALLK
Procedure: Plates were washed 6 times with 300 μL per well of a 75 mM phosphoric acid solution and the bottom of the plates was sealed. 40 μL/well of Microscint-20 was added, the top of the plates was sealed and readout was performed using the Topcount (Perkin Elmer). Kinase activity was calculated by subtracting counts per minute (cpm) obtained in the presence of a positive control inhibitor (10 μM staurosporine) from cpm obtained in the presence of vehicle. The ability of a test compound to inhibit this activity was determined as:
as §1
Dose dilution series were prepared for the compounds enabling the testing of dose-response effects in the JAK1 assay and the calculation of the IC50 for each compound.

Sequence of JAK2 (O60674 808-1132): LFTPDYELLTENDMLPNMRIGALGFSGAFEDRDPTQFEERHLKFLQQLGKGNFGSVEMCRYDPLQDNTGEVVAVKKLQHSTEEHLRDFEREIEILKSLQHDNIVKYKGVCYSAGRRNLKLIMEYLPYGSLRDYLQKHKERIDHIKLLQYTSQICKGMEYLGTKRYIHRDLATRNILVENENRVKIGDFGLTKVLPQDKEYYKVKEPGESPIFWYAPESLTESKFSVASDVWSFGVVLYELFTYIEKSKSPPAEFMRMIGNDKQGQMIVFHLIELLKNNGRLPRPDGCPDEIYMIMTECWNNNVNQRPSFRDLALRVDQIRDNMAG

SMILES | IC50 [1] | IC50 [2] [nM]
NC(=O)C1CCN(Cc2ccc(-c3cccc4nc(NC(=O)C5CC5)nn34)cc2)CC1 [Compound 8] | 7.73 µM and 1.35 µM | 435
O=C(Nc1nc2cccc(-c3ccc(N4CCOCC4)cc3)n2n1)C1CC1 [Compound 5, N-(5-(4-morpholinophenyl)-[1,2,4]triazolo[1,5-a]pyridin-2-yl)cyclopropanecarboxamide] | 1.76 µM | 1450
O=C(Nc1nc2cccc(-c3cccc(CN4CCOCC4)c3)n2n1)C1CC1 [Compound 3, N-(5-(3-(morpholinomethyl)phenyl)-[1,2,4]triazolo[1,5-a]pyridin-2-yl)cyclopropanecarboxamide] | – | 291
CC(=O)N1CCN(Cc2ccc(-c3cccc4nc(NC(=O)C5CC5)nn34)cc2)CC1 [Compound 9, N-(5-(4-((4-acetoylpiperazin-1-yl)methyl)phenyl)-[1,2,4]triazolo[1,5-a]pyridin-2-yl)cyclopropanecarboxamide] | 0.849 µM | 334
O=C(Nc1nc2cccc(-c3ccc(N4CCOCC4)nc3)n2n1)C1CC1 [Compound 4, N-(5-(6-morpholinopyridin-3-yl)-[1,2,4]triazolo[1,5-a]pyridin-2-yl)cyclopropanecarboxamide] | – | 1030
O=C(Nc1nc2cccc(-c3ccc(CN4CCCCC4)cc3)n2n1)C1CC1 [Compound 7, N-(5-(4-(piperidin-1-ylmethyl)phenyl)-[1,2,4]triazolo[1,5-a]pyridin-2-yl)cyclopropanecarboxamide] | 6.45 µM | 504
CN1CCN(Cc2ccc(-c3cccc4nc(NC(=O)C5CC5)nn34)cc2)CC1 [Compound 6, N-(5-(4-((4-methylpiperazin-1-yl)methyl)phenyl)-[1,2,4]triazolo [1,5-a]pyridin-2-yl) cyclopropanecarboxamide] | 5.07 µM | 3450
